The results in this text go back to patent US4223032A, “Triazolo [4,5-b] quinolines and prophylaxis of allergic diseases with them” (Beecham Group Limited, priority 1977, dated 1980).

This experiment deals with passive cutaneous anaphylaxis (PCA). The experiment is described as follows: Passive Cutaneous Anaphylaxis (PCA). In kind it is in vivo, Male Wistar rats. As to conditions: rat, i.v., carrier PBS with NaHCO3, time 0 mins before antigen challenge. Here is the method:
Passive Cutaneous Anaphylaxis (PCA)
Serum containing heat labile homocytotropic antibody was raised in rats to crystallized ovalbumin XOA by the method of Mota (I. Mota, Immunology, 7,681 [1964] using Bordettela pertussis vaccine as adjuvant.
Passive cutaneous anaphylaxis (PCA) was carried out by a method based on that of Ovary and Bier, (A. Ovary and O. G. Bier, Proc. Soc. Exp. Biol. Med. 81, 584, [1952]) as modified by Goose and Blair. (Immunology 16, 749 [1969]).
Male Wistar rats of 250-300 g. were given 0.1 ml. of each of six twofold serial dilutions of pooled antiserum in 0.9% saline injected intradermally into separate sites on their shaved backs. Later (72 hrs.) the animals were challenged by intravenous injection of 0.3 ml. of a 1% solution of ovalbumin in an isotonic solution of saline buffered with 0.05 M, pH 7.2, Sorenson Buffer (PBS), mixed with 0.2 ml. of a 5% solution of Pontamine Sky Blue (6BX C.I. 24410, Raymond A. Lamb, London) in isotonic saline. The rats were killed after 20 min and the diameter of the blue wheals at the antibody injection sites was measured on the outer surface of the skin. The starting dilution of the serum was adjusted so that there was no response, after challenge, at the injection site of the highest dilution and a maximum response at the lowest dilutions. Typically six twofold serial dilutions of the serum from 1/4 to 1/128 were used.
Compounds were tested for their ability to reduce the diameter of the wheals at those intradermal sites which in control animals gave less than maximum response. Each dose of the compound was administered to six rats at a measured time prior to intravenous challenge with ovalbumin. Control groups of six rats were given the same volume (0.2 ml/100 g) of carrier fluid at the same time prior to the challenge.
The results were calculated as follows. % inhibition of PCA=100 (1-a/b) where a=the sum of the diameters of the wheals produced in the test animal at the sites of antibody dilutions as used in control groups and b=the mean sum of the diameters of the wheals produced in the control group of animals at those antibody sites where at least five out of six of the animals gave less than maximum response. A typical variation in the control group of animals was SEM± 6%.

As for `O=c1c2cc(Cl)ccc2[nH]c2nn[nH]c12` [Example 3, 7-Chloro-4,9-dihydro-9-oxo-1H-triazolo[4,5-b] quinoline], the “% Inhib PCA” value runs as follows: (5 mg/kg) 36%; (20 mg/kg) 70%.

In the case of `O=c1c2ccccc2[nH]c2nn[nH]c12` [Example 1, 4,9-Dihydro-9-oxo-1H-triazolo[4,5-b] quinoline], the “% Inhib PCA” value (2 mg/kg) turned out to be 14%, the “% Inhib PCA” value (4 mg/kg) turned out to be 22% and the “% Inhib PCA” value (10 mg/kg) was 79%.

For `Cc1ccc2[nH]c3nn[nH]c3c(=O)c2c1` [Example 2, 4,9-dihydro-7-methyl-9-oxo-1H-triazolo[4,5-b] quinoline], the “% Inhib PCA” value is 16% (5 mg/kg) and 65% (10 mg/kg).
